Reference: patent publication US6057371A, “Sigma receptor ligands and the use thereof” (Virginia Commonwealth University, priority 1992, dated 2000)
Read-outs that look alike come from different tables or passages of the source.

How the values were obtained:
[1] = molecular target: sigma receptor; test: Sigma receptor binding, [^3 H]DTG, brain membranes (both sigma-1 and sigma-2 sites); design: species or system guinea pig
[2] = molecular target: T1, sigma-2 binding site (Cavia porcellus, UniProt H0V073); test: biochemical; design: species or system guinea pig
T1 construct: Guinea pig whole membrane preparations (P2 microsomal fraction); from tissue; host or cells: guinea pig membranes (P2 microsomal fraction), as described by Weber et al; brain inferred from the sister test b489
T1 sequence (H0V073 1-176): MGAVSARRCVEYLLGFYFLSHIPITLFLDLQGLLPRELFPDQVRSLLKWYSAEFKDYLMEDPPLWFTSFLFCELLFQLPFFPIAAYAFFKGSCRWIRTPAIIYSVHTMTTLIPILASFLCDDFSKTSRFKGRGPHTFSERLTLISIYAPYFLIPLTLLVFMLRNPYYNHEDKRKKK
Protocol: For the standard equilibrium assay, the mixtures were incubated for 30 min. at room temperature, then filtered and the radioactivity determined as described above.

[3] = molecular target: T2, 5-HT1A receptor (Rattus norvegicus, UniProt P19327); test: biochemical; format: binding; design: 47: 529-540 (1986); from tissue; host or cells: brain tissue, inferred from the cited method (rat frontal cortex); details: Table 6; read-out: 5HT-1A (nM) MEAN
T2 sequence (P19327 1-422): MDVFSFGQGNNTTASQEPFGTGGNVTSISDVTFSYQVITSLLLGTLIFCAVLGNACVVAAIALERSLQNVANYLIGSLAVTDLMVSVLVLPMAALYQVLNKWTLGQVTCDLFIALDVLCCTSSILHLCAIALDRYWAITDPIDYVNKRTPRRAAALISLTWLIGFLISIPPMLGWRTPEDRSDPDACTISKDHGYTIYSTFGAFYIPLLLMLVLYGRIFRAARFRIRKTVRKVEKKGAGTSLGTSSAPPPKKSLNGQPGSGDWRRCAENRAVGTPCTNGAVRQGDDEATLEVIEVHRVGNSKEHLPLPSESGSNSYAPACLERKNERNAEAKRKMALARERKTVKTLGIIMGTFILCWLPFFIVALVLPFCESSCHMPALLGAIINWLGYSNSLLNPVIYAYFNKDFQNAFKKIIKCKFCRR
Protocol: Further sigma receptor binding assays against [^3 H]DTG and 5HT-1A binding assays were conducted according to the procedure outlined in the previous examples.

[4] = molecular target: T3, sigma-1 binding site (Cavia porcellus, UniProt Q60492); test: biochemical; design: species or system guinea pig
T3 construct: Guinea pig whole membrane preparations (P2 microsomal fraction); from tissue; host or cells: guinea pig membranes (P2 microsomal fraction), as described by Weber et al; brain inferred from the sister test b489
Protocol: [^3 H]DTG was purchased from DuPont/NEN.
The radioactivity on the filters was determined by scintillation spectrometry at an efficiency of about 50% using Cytoscint (ICN) scintillation fluid.

[5] = Table 10, read-out: SIGMA-2 KI vs. 3H-DTG + PENTAZOCINE MEAN
[6] = Table 10, read-out: SIGMA-1 KI vs. 3H-PENTAZOCINE MEAN
[7] = less than about 0.1, see Table 10
[8] = Table 7, Phenyl-(CH2)x -NH--(CH2)y -Phenyl, read-out: Ki
[9] = Example 9, read-out: sigma-2 IC50
[10] = Table 18, read-out: IC50 (nM) at sigma-2
[11] = Table 15, read-out: IC50 (nM) at sigma-1
[12] = running text, Examples 5 and 6, read-out: sigma receptor Ki

T3 sequence (Q60492 whole entry): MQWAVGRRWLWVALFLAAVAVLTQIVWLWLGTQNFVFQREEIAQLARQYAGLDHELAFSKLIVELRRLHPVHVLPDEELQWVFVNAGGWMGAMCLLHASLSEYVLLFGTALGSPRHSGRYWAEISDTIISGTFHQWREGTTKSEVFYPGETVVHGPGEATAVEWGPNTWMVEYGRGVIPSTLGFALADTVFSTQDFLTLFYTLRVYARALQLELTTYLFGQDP

CCOc1ccc(CC(C)NCCCc2ccccc2)cc1 (racemic) [Compound 83, N-(3-phenylpropyl)-1-(p-ethoxyphenyl)-2-propylamine]
IC50 ([1]; Table 6, [^3 H]DTG): 7.08 nM
Ki [2, 5]: 33.5 nM
IC50 ([2]; Table 17, read-out: IC50 (nM) at sigma-2): 34 nM
IC50 [3]: 77.7 nM
Ki [4, 6]: 3.38 nM
S1/S2 Ratio ([4]; Table 10, sigma-1/sigma-2): 0.101
IC50 ([4]; Table 12, read-out: IC50 (nM) at sigma-1): 3.4 nM
IC50 ratio of sigma-1/sigma-2 (sigma-1 selective compounds) [4, 7]: less than 0.1

CCCN1CCN(c2ccccc2)CC1 [Compound 64, N-Phenyl-N'-propylpiperazine]
Ki [2, 5]: 538 nM
IC50 [3]: 784 nM
Ki [4, 6]: 81.6 nM

c1ccc2cc(CCCNCCCc3ccc4ccccc4c3)ccc2c1 [Compound 70, Di-[3-(2'-Naphthyl)propyl)amine]
IC50 ([1]; Table 6, [^3 H]DTG): 116 nM
Ki [2, 5]: 10000 nM
IC50 [3]: 3890 nM

c1ccc(CCCCNCCc2ccccc2)cc1 [Compound 71, N-(4-phenylbutyl)phenethylamine]
IC50 ([1]; Table 6, [^3 H]DTG): 5.68 nM
Ki [1, 8]: 5.5 nM
IC50 [2, 9]: 120 nM
Ki [2, 5]: 119 nM
IC50 [3]: 225 nM
Ki [4, 6]: 2.6 nM
S1/S2 Ratio ([4]; Table 10, sigma-1/sigma-2): 0.022
IC50 ratio of sigma-1/sigma-2 (sigma-1 selective compounds) [4, 7]: less than 0.1

c1ccc(CCCCNCc2ccccc2)cc1 [Compound 75, N-(4-phenylbutyl)benzylamine]
IC50 ([1]; Table 6, [^3 H]DTG): 13.6 nM
Ki [1, 8]: 13 nM
IC50 [2, 9]: 160 nM
Ki [2, 5]: 162 nM
IC50 [3]: 255 nM
Ki [4, 6]: 9.61 nM
S1/S2 Ratio ([4]; Table 10, sigma-1/sigma-2): 0.059
IC50 ratio of sigma-1/sigma-2 (sigma-1 selective compounds) [4, 7]: less than 0.1

c1ccc(CCCCCNCCCCc2ccccc2)cc1 [Compound 76, N-(5-phenylpentyl)-(4-phenyl)butylamine]
IC50 ([1]; Table 6, [^3 H]DTG): 2.65 nM
Ki [1, 8]: 2.5 nM
Ki [2, 5]: 68 nM
IC50 [2, 10]: 48 nM
IC50 [3]: 119 nM
IC50 [4]: 0.48 nM
IC50 ratio of sigma-1/sigma-2 (sigma-1 selective compounds) [4]: less than 0.1
Ki ([4]; SIGMA-1 KI vs. 3H-P[…]): 0.48 nM
S1/S2 Ratio ([4]; guinea pig, microsomes): 0.007

c1ccc(CCCCCNCc2ccccc2)cc1 [Compound 77, N-(5-phenylpentyl)benzylamine]
IC50 ([1]; Table 6, [^3 H]DTG): 2.07 nM
Ki [1, 8]: 2 nM
Ki [2, 5]: 34.3 nM
IC50 [2, 10]: 34 nM
IC50 [3]: 759 nM
Ki [4, 6]: 0.32 nM
S1/S2 Ratio ([4]; Table 10, sigma-1/sigma-2): 0.009
IC50 [4, 11]: 0.32 nM
IC50 ratio of sigma-1/sigma-2 (sigma-1 selective compounds) [4, 7]: less than 0.1

c1ccc(CCCCN2CCN(Cc3ccccc3)CC2)cc1 [Compound 79, N-(4-phenylbutyl)-N'-benzylpiperazine]
IC50 ([1]; Table 6, [^3 H]DTG): 2.25 nM
Ki [2, 5]: 6.99 nM
IC50 [3]: 173 nM
Ki [4, 6]: 0.17 nM
S1/S2 Ratio ([4]; Table 10, sigma-1/sigma-2): 0.024
IC50 ratio of sigma-1/sigma-2 (sigma-1 selective compounds) [4, 7]: less than 0.1

c1ccc(CCCCCNCCc2ccccc2)cc1 [Compound 89, N-(5-phenylpentyl)phenethylamine]
IC50 ([1]; Table 6, [^3 H]DTG): 2.74 nM
Ki [1, 8]: 2.4 nM
Ki [1, 12]: 2.4 nM
Ki [2, 5]: 14.6 nM
IC50 [2, 10]: 15 nM
IC50 [3]: 106 nM

c1ccc(CCCCCCCNCc2ccccc2)cc1 [Compound 90, N-(7-phenylheptyl)benzylamine]
IC50 ([1]; Table 6, [^3 H]DTG): 3.95 nM
Ki [1, 8]: 3.6 nM
Ki [2, 5]: 38.5 nM
IC50 [3]: 3210 nM
IC50 ratio of sigma-1/sigma-2 (sigma-1 selective compounds) [4]: less than 0.1
sigma-2/sigma-1 selectivity [4]: 126
Ki ([4]; SIGMA-1 KI vs. 3H-P[…]): 2.3 nM
S1/S2 Ratio ([4]; guinea pig, microsomes): 0.060

c1ccc(CCCCCCCNCCc2ccccc2)cc1 [Compound 91, N-(7-phenylheptyl)phenethylamine]
IC50 ([1]; Table 6, [^3 H]DTG): 4.07 nM
Ki [1, 8]: 4.1 nM
Ki [2, 5]: 33.2 nM
IC50 [3]: 732 nM
IC50 ratio of sigma-1/sigma-2 (sigma-1 selective compounds) [4]: less than 0.1
Ki [4, 6]: 1.47 nM
S1/S2 Ratio ([4]; guinea pig, microsomes): 0.044
Ki ([4]; sigma-1 binding affinity): 1.5 nM

c1ccc(CNCCCCCC2CCCCC2)cc1 [Compound 94, N-(5-cyclohexylpentyl)benzylamine]
Ki ([1]; Examples 5 and 6, listed as N-benzyl-(5-cyclohexyl)pentylamine, read-out: sigma receptor Ki): 1.3 nM
IC50 ([1]; Table 6, [^3 H]DTG): 4.02 nM
Ki [1, 12]: 3.4 nM
Ki [2, 5]: 43.6 nM
IC50 [3]: 5550 nM
IC50 [4]: 0.81 nM
IC50 ratio of sigma-1/sigma-2 (sigma-1 selective compounds) [4]: less than 0.1
Ki ([4]; SIGMA-1 KI vs. 3H-P[…]): 0.81 nM
S1/S2 Ratio ([4]; guinea pig, microsomes): 0.019

CN1CCN(CC/C=C\c2cccc(C(F)(F)F)c2)CC1 [Compound 105, N-(4-(3-trifluoromethyl)-3-(Z)-butenyl)-N-methylpiperazine]
IC50 ([1]; Table 6, [^3 H]DTG): 9.5 nM
Ki [2, 5]: 177 nM
IC50 [3]: 4960 nM
Ki [4, 6]: 1.5 nM
S1/S2 Ratio ([4]; Table 10, sigma-1/sigma-2): 0.008
IC50 ratio of sigma-1/sigma-2 (sigma-1 selective compounds) [4, 7]: less than 0.1

c1ccc(CCCCCNCCCc2ccccc2)cc1 [Compound 111, N-(5-phenylpentyl)-3-phenylpropylamine]
IC50 ([1]; Table 6, [^3 H]DTG): 2.73 nM
Ki [1, 8]: 1.8 nM
Ki [2, 5]: 9.84 nM
IC50 [2, 10]: 9.8 nM
IC50 [3]: 92.2 nM
Ki [4, 6]: 0.28 nM
S1/S2 Ratio ([4]; Table 10, sigma-1/sigma-2): 0.029
IC50 [4, 11]: 0.28 nM
IC50 ratio of sigma-1/sigma-2 (sigma-1 selective compounds) [4, 7]: less than 0.1

CCCN(C)CCCCCc1ccccc1 [Compound 112, N-methyl-N-propyl-5-phenylpentylamine]
IC50 ([1]; Table 6, [^3 H]DTG): 2.65 nM
Ki ([1]; running text, Examples 5 and 6, listed as N-methyl-N-propyl-5-phenylpentylamine, read-out: sigma receptor Ki): 2.2 nM
IC50 [2, 9]: 40 nM
Ki [2, 5]: 40.5 nM
IC50 [3]: 8240 nM
IC50 ([4]; Example 8, read-out: sigma-1 IC50, text): 0.29 nM
Ki ([4]; read-out: SIGMA-1 KI vs. 3H-P[…]): 0.29 nM

CN(C)CCCCCC1CCCCC1 [Compound 128, N,N-Dimethyl-5-cyclohexylpentylamine]
change in sigma receptor affinity vs. analog ([1]; Examples 5 and 6, [^3 H]DTG): ~10 fold
IC50 ([1]; Table 6, [^3 H]DTG): 2.87 nM
Ki [1, 12]: 2.6 nM
Ki [2, 5]: 195 nM
sigma-2/sigma-1 selectivity ([4]; Example 8): 650
Ki [4, 6]: 0.26 nM
S1/S2 Ratio ([4]; Table 10, sigma-1/sigma-2): 0.001
IC50 ([4]; Table 16, read-out: Sigma-1 IC50): 0.26 nM
IC50 ratio of sigma-1/sigma-2 (sigma-1 selective compounds) [4, 7]: less than 0.1

c1ccc(CCCCCN2CCN(Cc3ccccc3)CC2)cc1 [Compound 129, N-Benzyl-N'-(5-phenylpentyl)-piperazine]
IC50 ([1]; Table 6, [^3 H]DTG): 2.29 nM
Ki [2, 5]: 11.3 nM
Ki [4, 6]: 0.41 nM
S1/S2 Ratio ([4]; Table 10, sigma-1/sigma-2): .036

C[C@@H](Cc1ccccc1)N(CCCc1ccccc1)Cc1ccccc1 [Compound 134, N-Benzyl-N-(3-phenylpropyl)-1-phenyl-2-propylamine]
IC50 [1]: 199 nM
Ki ([2]; SIGMA-2 KI vs. 3H-DTG + P[…]): 471 nM
Ki ([4]; SIGMA-1 KI vs. 3H-P[…]): 128 nM
S1/S2 Ratio ([4]; guinea pig, microsomes): 0.272

c1ccc(CCCN2CCCCC2)cc1 [Compound 140, N-(3-phenylpropyl)piperidine]
IC50 ([1]; Table 6, [^3 H]DTG): 69 nM
Ki [2, 5]: 147 nM
Ki [4, 6]: 48.9 nM
